In patent publication US20240287080A1 (IDEAYA Biosciences Inc., priority 2021, published 2024):

The molecules below were run against T1, Pol theta (1-899) (Homo sapiens, UniProt O75417) (assay: Pol theta ATPase activity, NADH oxidation-coupled enzymatic assay (ATPase NADH coupling: Standard Screening: hPolQ)). Conditions: Pol theta (1-899) 5 nM, NADH oxidation-coupled ATPase assay; compounds of Table 3.
T1 construct: Pol theta (1-899) (5 nM) in assay buffer
Type: biochemical
Summary of the method: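 NADH-coupled ATPase readout: 5 nM Pol theta (1-899) preincubated 15 min with 10-point compound series in Tris pH 7.80, KCl, MgCl2, DTT, BSA, Tween, glycerol, then 100 μM ATP, 300 nM 50-mer poly-dT ssDNA, NADH, PEP, LDH and PK added (stock levels). A340 followed 60 min; slopes fit four-parameter for IC50.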

T1 sequence (O75417 1-899): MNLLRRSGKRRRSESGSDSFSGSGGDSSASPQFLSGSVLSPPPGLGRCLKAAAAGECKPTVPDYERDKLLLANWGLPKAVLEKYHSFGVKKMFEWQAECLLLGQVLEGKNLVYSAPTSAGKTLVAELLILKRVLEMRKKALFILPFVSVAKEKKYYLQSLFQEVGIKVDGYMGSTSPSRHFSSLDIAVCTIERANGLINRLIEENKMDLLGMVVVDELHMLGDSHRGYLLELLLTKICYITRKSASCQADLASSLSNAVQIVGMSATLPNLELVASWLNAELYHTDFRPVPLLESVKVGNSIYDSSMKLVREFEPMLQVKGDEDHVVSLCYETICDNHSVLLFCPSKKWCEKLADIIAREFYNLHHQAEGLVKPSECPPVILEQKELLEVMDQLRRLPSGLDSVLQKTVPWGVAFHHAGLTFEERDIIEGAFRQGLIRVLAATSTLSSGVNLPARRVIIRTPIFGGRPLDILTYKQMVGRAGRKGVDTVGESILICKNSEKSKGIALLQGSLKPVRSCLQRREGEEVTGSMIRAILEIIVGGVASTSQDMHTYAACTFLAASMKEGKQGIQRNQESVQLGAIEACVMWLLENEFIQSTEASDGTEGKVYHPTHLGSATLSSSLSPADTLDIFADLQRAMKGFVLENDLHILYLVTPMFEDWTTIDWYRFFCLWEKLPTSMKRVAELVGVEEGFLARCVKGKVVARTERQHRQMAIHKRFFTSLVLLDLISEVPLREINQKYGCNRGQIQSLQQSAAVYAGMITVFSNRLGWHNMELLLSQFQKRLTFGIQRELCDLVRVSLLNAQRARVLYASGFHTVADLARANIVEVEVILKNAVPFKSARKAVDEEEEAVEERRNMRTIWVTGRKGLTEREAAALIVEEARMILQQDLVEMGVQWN

`COc1nnc(NC(=O)c2cnc(C)cc2-c2cnc(N(C)C)nc2)s1` [Example 458, 4-(2-(dimethylamino)pyrimidin-5-yl)-N-(5-methoxy-1,3,4-thiadiazol-2-yl)-6-methylnicotinamide] and `COc1nnc(NC(=O)c2cnc(C)cc2-c2ccc(C#N)nc2)s1` [Example 437, 6-cyano-N-(5-methoxy-1,3,4-thiadiazol-2-yl)-6′-methyl-[3,4′-bipyridine]-3′-carboxamide] fall in the same range of IC50: 1000 to 10000 nM for the first, 1000 to 10000 nM for the second.

First: CCc1ccc(-c2cc(C)ncc2C(=O)Nc2nnc(OC)s2)cc1 [Example 459, 4-(4-ethylphenyl)-N-(5-methoxy-1,3,4-thiadiazol-2-yl)-6-methylpyridine-3-carboxamide]
Second: COc1nnc(NC(=O)c2cnc(C)cc2-c2ccc3[nH]ncc3c2)s1 [Example 487, 4-(1H-indazol-5-yl)-N-(5-methoxy-1,3,4-thiadiazol-2-yl)-6-methylnicotin amide]
The IC50 of the first is higher: 1000 to 10000 nM for the first, 500 to 1000 nM for the second. The second is the more potent here.

First: COc1nnc(NC(=O)c2cnc(C)cc2-c2cc(C)nc(C)c2)s1 [Example 469, N-(5-methoxy-1,3,4-thiadiazol-2-yl)-2′,6,6′-trimethyl-[4,4′-bipyridine]-3-carboxamide]
Second: COc1nnc(NC(=O)c2cnc(C)cc2-c2cnn(-c3ccccc3)c2)s1 [Example 460, N-(5-methoxy-1,3,4-thiadiazol-2-yl)-6-methyl-4-(1-phenyl-1H-pyrazol-4-yl)nicotinamide]
The IC50 of the first is lower: 200 to 500 nM for the first, 1000 to 10000 nM for the second.

For `COc1cnc(Cl)cc1-c1cc(C)ncc1C(=O)Nc1nnc(O[C@H]2CC[C@@]23CCOC3)s1` (racemic) [Example 292, rac-N-(5-(((1S,4S)-6-oxaspiro[3.4]octan-1-yl)oxy)-1,3,4-thiadiazol-2-yl)-2′-chloro-5′-methoxy-6-methyl-[4,4′-bipyridine]-3-carboxamide], the IC50 was ≤ 200 nM.

Same assay, conditions: Table 4; Pol theta (1-899) 5 nM, ATP, dT50 ssDNA

`COc1nnc(NC(=O)c2cnc(C)cc2-c2cc(C3CC3)ncc2OC)s1` [Example 51, 2′-cyclopropyl-5′-methoxy-N-(5-methoxy-1,3,4-thiadiazol-2-yl)-6-methyl-(4,4′-bipyridine)-3-carboxamide] and `COc1nnc(NC(=O)c2cnc(C)cc2-c2cc(Cl)ccc2OC)s1` [Example 9, 4-(5-chloro-2-methoxyphenyl)-N-(5-methoxy-1,3,4-thiadiazol-2-yl)-6-methylnicotinamide] cannot be ordered by IC50: ≤ 200 nM for the first, ≤ 200 nM for the second.

`COc1nnc(NC(=O)c2cnc(C)cc2-c2c(OC)cnc(C)c2F)s1` [Example 61, 3′-fluoro-5′-methoxy-N-(5-methoxy-1,3,4-thiadiazol-2-yl)-2′,6-dimethyl-(4,4′-bipyridine)-3-carboxamide] was tested, and the IC50 was ≤ 200 nM.

Same assay, conditions: Table 5; Pol theta (1-899) 5 nM, ATP, dT50 ssDNA

`COc1cnc(Cl)c(F)c1-c1cc(C)ncc1C(=O)Nc1nnc(O[C@@H]2CCC[C@H](O)C2)s1` (single isomer, unassigned) [Example 155] and `COc1cnc(Cl)cc1-c1cc(C)ncc1C(=O)Nc1nnc(O[C@H]2CCC[C@](C)(O)C2)s1` (racemic) [Example 178, rac-2′-chloro-N-(5-(((1R,3R)-3-hydroxy-3-methylcyclohexyl)oxy)-1,3,4-thiadiazol-2-yl)-5′-methoxy-6-methyl-(4,4′-bipyridine)-3-carboxamide] cannot be ordered by IC50: ≤ 200 nM for the first, ≤ 200 nM for the second.

`COCc1cc(-c2cc(Cl)ncc2OC)c(C(=O)Nc2nnc(O[C@@H]3CCOC3)s2)cn1` [Example 142, (R)-2′-chloro-5′-methoxy-6-(methoxymethyl)-N-(5-((tetrahydrofuran-3-yl)oxy)-1,3,4-thiadiazol-2-yl)-(4,4′-bipyridine)-3-carboxamide] and `COc1cnc(Cl)cc1-c1cc(C)ncc1C(=O)Nc1nnc(O[C@H]2COC(C)(C)C2)s1` (single isomer, unassigned) [Example 131] cannot be ordered by IC50: ≤ 200 nM for the first, ≤ 200 nM for the second.

In the case of `COc1nnc(NC(=O)c2cnc(C)cc2-c2cc3cn[nH]c3cc2OC)s1` [Example 104, N-(5-methoxy-1,3,4-thiadiazol-2-yl)-4-(6-methoxy-1H-indazol-5-yl)-6-methylnicotinamide], the IC50 is reported as 200 to 500 nM.
